Laboratory results as given in patent US11332455B2, “α,β-unsaturated amide compound” (KYOWA KIRIN CO., LTD., priority 2015, dated 2022).

Tests used:
Assay in all cases: Cell growth inhibitory effect, cell counting kit 8, 6 days
Assay type in all cases: cell-based
[1] = system: HuH28, a human liver cancer cell line; settings: 144 h, HuH28 cells, 6 days incubation
From the text: (§1) Cell growth inhibitory effect on human mesothelioma, human liver cancer, human ovarian cancer, and […]
(§2) NCI-H226 cells, a human mesothelioma cell line (ATCC, CRL-5826), NCI-H322 cells, a human lung cancer cell line (the European Collection of Authenticated Cell Cultures, 95111734), OVTOKO cells, a human ovarian cancer cell line (JCRB cell bank, JCRB1048) and HuH28, a human liver cancer cell line (JCRB cell bank, JCRB0426) were each subcultured by keeping the cell density under 80% in a RPMI1640 culture medium with 10% fetal bovine serum (FBS). NCI-H226 cells, NCI-H322 cells and SSP-25 cells were each suspended in the RPM11640 culture medium mentioned above, and plated to a 96-well flat-bottom plate at 500 cells/well in each well, and incubated at 37° C. in an incubator with 5% CO2 for one day. After the incubation, the evaluation of cell growth inhibitory activity was started. OVTOKO cells were suspended in the RPMI1640 culture medium mentioned above, and plated to a 96-well flat-bottom plate at 250 cells/well in each well, and incubated it at 37° C. in an incubator with 5% CO2 for one day. After the incubation, the evaluation of the cell growth inhibitory activity was started. The next day, a test compound was serially diluted to 5 times of its final concentration in the RPM11640 culture medium mentioned above, and the diluted solution was added to each well. In this case, the final concentration of DMSO in each well was adjusted to 0.1%. After the test compound was added, cells were incubated at 37° C. in an incubator with 5% CO2 for 6 days. At the addition of the test compound and 6 days after the addition, the cell counting measurement was performed using a cell counting kit 8 (made by DOJINDO) according to a protocol equivalent to DOJINDO's recommendation. A reagent contained in the kit was added to each plate and color reaction was performed for 2 or 3 hours at 37° C. in an incubator with 5% CO2. After the reaction, an absorbance at wavelength of 450 nm was measured using a microplate reader. A growth inhibition rate was calculated according to the following formula, from which the concentration of a test compound at which cell growth was inhibited by 50% (GI50 value) was determined.

[2] = system: NCI-H226 cells, a human mesothelioma cell line; settings: 144 h, 6 days incubation
From the text: as §1, §2

[3] = system: NCI-H322 cells, a human lung cancer cell line; settings: 144 h, 6 days incubation
From the text: as §1, §2

[4] = group 100 nmol/L to 1 μmol/L (upper bound given in μmol/L)

SMILES	GI50 [1]	GI50 ([2]; group less than 100 nmol/L)	GI50 [3]	GI50 [2, 4]
C=CC(=O)Nc1ccc(Oc2ccc(Cl)cc2)c2nc(C)ccc12 [Compound 117, N-{8-(4-Chlorophenoxy)-2-methylquinolin-5-yl}acrylamide]	< 3 µM	< 0.1 µM	< 1 µM	–
C=CC(=O)NCc1ccc(C(=O)c2ccc(C(F)(F)F)cc2)c2ncccc12 [Compound 208, N-([8-{4-(Trifluoromethyl)benzoyl}quinolin-5-yl]methyl)acrylamide]	< 3 µM	–	< 1 µM	0.1 to 1 µM
C=CC(=O)NCc1ccc(Oc2ccc(C(F)(F)F)cc2)c2nccc(C)c12 [Compound 201, N-([4-Methyl-8-{4-(trifluoromethyl)phenoxy}quinolin-5-yl]methyl)acrylamide]	< 3 µM	< 0.1 µM	< 1 µM	–
C=CC(=O)NC1CCOc2cc(Oc3ccc(C(F)(F)F)cc3)ccc21 (stereo not drawn) [Compound 5, N-[7-{4-(trifluoromethyl)phenoxy}chroman-4-yl]acrylamide]	< 3 µM	< 0.1 µM	< 1 µM	–
C=CC(=O)NCc1ccc(Oc2ccc(C(F)(F)F)cc2)c2ncc(C)cc12 [Compound 199, N-([3-Methyl-8-{4-(trifluoromethyl)phenoxy}quinolin-5-yl]methyl)acrylamide]	< 3 µM	< 0.1 µM	< 1 µM	–
C=CC(=O)NCc1cc(Oc2ccnc(C(F)(F)F)c2)nc2ccccc12 [Compound 151, N-{(2-[{2-(Trifluoromethyl)pyridin-4-yl}oxy]quinolin-4-yl)methyl}acrylamide]	< 3 µM	< 0.1 µM	< 1 µM	–
C=CC(=O)NCc1ccc(Oc2ccc(C(F)(F)F)cc2)c2cnccc12 [Compound 223, N-([8-{4-(Trifluoromethyl)phenoxy}isoquinolin-5-yl]methyl)acrylamide]	< 3 µM	< 0.1 µM	< 1 µM	–
C=CC(=O)NC1CCOc2c1ccc(Oc1ccc(C(F)(F)F)cc1)c2F (racemic) [Compound 31, N-[8-Fluoro-7-{4-(trifluoromethyl)phenoxy}chroman-4-yl]acrylamide]	< 3 µM	< 0.1 µM	< 1 µM	–
C=CC(=O)NCc1cc(Oc2ccc(C(F)(F)F)nc2)nc2ccccc12 [Compound 149, N-{(2-[{6-(Trifluoromethyl)pyridin-3-yl}oxy]quinolin-4-yl)methyl}acrylamide]	< 3 µM	< 0.1 µM	< 1 µM	–
C=CC(=O)NCc1ncc(Oc2ccc(C(F)(F)F)cc2)c2ccccc12 [Compound 224, N-([4-{4-(Trifluorophenyl)phenoxy}isoquinolin-1-yl]methyl)acrylamide]	< 3 µM	< 0.1 µM	< 1 µM	–
C=CC(=O)NCc1ccc(Oc2ccc(C(F)(F)F)cc2)c2ncccc12 [Compound 138, N-([8-{4-(Trifluoromethyl)phenoxy}quinolin-5-yl]methyl)acrylamide]	< 3 µM	< 0.1 µM	< 1 µM	–
C=CC(=O)Nc1ccc(Oc2ccccc2)c2ncccc12 [Compound 111, N-(8-Phenoxyquinolin-5-yl)acrylamide]	< 3 µM	< 0.1 µM	< 1 µM	–
C=CC(=O)Nc1cnc(Oc2ccc(Cl)cc2)c2ncccc12 [Compound 226, N-{8-(4-chlorophenoxy)-1,7-naphthyridin-5-yl}acrylamide]	< 3 µM	< 0.1 µM	< 1 µM	–
C=CC(=O)NCc1ccc(C(O)c2ccc(C(F)(F)F)cc2)c2ncccc12 (stereo not drawn) [Compound 206, N-{(8-[Hydroxy{4-(trifluoromethyl)phenyl}methyl]quinolin-5-yl)methyl}acrylamide]	< 3 µM	–	< 1 µM	0.1 to 1 µM
C=CC(=O)NCc1ccc(Oc2ccc(C(F)(F)F)cc2)c2nc(Cl)ccc12 [Compound 139, N-([2-Chloro-8-{4-(trifluoromethyl)phenoxy}quinolin-5-yl]methyl)acrylamide]	< 3 µM	< 0.1 µM	< 1 µM	–
C=CC(=O)NC1COc2c(cccc2Oc2cnc(C(F)(F)F)nc2)C1 (stereo not drawn) [Compound 155, N-(8-[{2-(Trifluoromethyl)pyrimidin-5-yl}oxy]chroman-3-yl)acrylamide]	< 3 µM	< 0.1 µM	< 1 µM	–
